This note sets out measurements from USRE47689E1, “Compounds for treating spinal muscular atrophy” (PTC Therapeutics, Inc., priority 2011, dated 2019).

One assay concerns Smn protein. The experiment in a line: Smn protein assay in cultured cells (SMN HTRF). Format: cell-based, human. To be noted: 48 hours; for EC1.5x (concentration giving 1.5-fold Smn protein increase): SMA Type 1 patient fibroblast cells (GM03813), 7-point concentration curve, SMN HTRF, concentration producing 1.5 times Smn protein vs DMSO vehicle control, read-out: EC1.5x for Smn protein expression; for maximum fold (Fold) increase of Smn protein: SMA patient fibroblast cells, 7-point concentration data, fold increase relative to vehicle control (SMN HTRF). In outline:
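Smn in SMA fibroblast lysates, measured by anti-SMN HTRF after 48 h compound exposure; EC1.5x from fold change over vehicle.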
In general terms: Time-resolved FRET reads energy transfer from a long-lived donor to a nearby acceptor.

For assay [1], the system named is SMN2 minigene (full length SMN2 minigene mRNA containing SMN2 exon 7). Description: SMN2 minigene mRNA splicing RT-qPCR assay in cultured cells. It is filed as cell-based, human. To be noted: HEK293H cells stably transfected with SMN2-A minigene, 24 hours, 7-point concentration curve, 1.5-fold relative to vehicle-treated cells; for EC (1.5-fold): Homo sapiens, HEK293-H, read-out: EC1.5x for production of full length SMN2 mRNA. In outline:
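Full-length SMN2 minigene mRNA (exon 7 included), minigene-specific and not endogenous SMN, quantified by RT-qPCR multiplexed with GAPDH in stably transfected HEK293H cells after 24 h compound exposure at 37° C. Abundance from efficiency-corrected Ct, normalized to GAPDH and vehicle; EC1.5x reported as star bins.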
In general terms: In qPCR the cycle at which signal appears reflects the starting amount.

For the compound `Cc1cn2cc(-c3cc4ccc(N5CCNCC5)cc4oc3=O)nc2c(C)n1` [Compound 515, 3-(6,8-dimethylimidazo[1,2-a]pyrazin-2-yl)-7-(piperazin-1-yl)-2H-chromen-2-one], in the assay on Smn protein, the EC1.5x (concentration giving 1.5-fold Smn protein increase) is less than 300 nM and the “maximum fold (Fold) increase of Smn protein” value (“maximum fold (Fold) increase” below) was “***** (fold increase >1.65)”. Also, the EC (1.5-fold) in assay [1] was less than 0.1 µM.
For the compound `C[C@@H]1CN(c2ccc3cc(-c4cn5ccccc5n4)c(=O)oc3c2)C[C@H](C)N1C` [Compound 140, 3-(imidazo[1,2-a]pyridin-2-yl)-7-[(3R,5S)-3,4,5-trimethylpiperazin-1-yl]-2H-chromen-2-one], the “maximum fold (Fold) increase” value in the assay with Smn protein is “** (fold increase between >1.2 and ≤1.35)”. Further, the EC (1.5-fold) in assay [1] fell in the range of 0.3 to 1 µM.
For `Cc1csc2nc(-c3cc4ccc(N5CCNCC5)cc4oc3=O)cn12.Cl.Cl.Cl` [Compound 141, 3-(3-methylimidazo[2,1-b][1,3]thiazol-6-yl)-7-(piperazin-1-yl)-2H-chromen-2-one hydrochloride (1:3)], the “maximum fold (Fold) increase” value in the assay with Smn protein was “* (maximum fold increase of ≤1.2)”. Further, in assay [1], the “EC1.5x for production of full length SMN2 mRNA” value was “** (between >1 μM and ≤3 μM)”.
Take `Cc1cn2cc(-c3cc4c(F)cc(N5CCN(C)[C@@H](C)C5)cc4oc3=O)nc2cn1` [Compound 659, 7-[(3S)-3,4-dimethylpiperazin-1-yl]-5-fluoro-3-(6-methylimidazo[1,2-a]pyrazin-2-yl)-2H-chromen-2-one]: in the assay on Smn protein, the EC1.5x (concentration giving 1.5-fold Smn protein increase) is less than 300 nM; the “maximum fold (Fold) increase” value was “**** (fold increase between >1.5 and ≤1.65)”. Moreover, the EC (1.5-fold) in assay [1] is less than 0.1 µM.
On to `O=c1oc2cc(N3CC4CC3CN4)ccc2cc1-c1nc2ccccc2o1` (centres unmarked) [Compound 85, 3-(1,3-benzoxazol-2-yl)-7-(2,5-diazabicyclo[2.2.1]hept-2-yl)-2H-chromen-2-one], for which, in the assay on Smn protein, the “maximum fold (Fold) increase” value was “* (maximum fold increase of ≤1.2)”. Also, the EC (1.5-fold) in assay [1] was 3 to 30 µM.
Taken in the same sequence, the figures for `CSc1nccn2cc(-c3cc4ccc(N5CCNCC5)cc4oc3=O)nc12` [Cpd 398, 3-[8-(methylsulfanyl)imidazo[1,2-a]pyrazin-2-yl]-7-(piperazin-1-yl)-2H-chromen-2-one] were “* (maximum fold increase of ≤1.2)” and 1 to 3 µM.
`Cc1cn2cc(-c3cc4ccc(N5CCN(C)CC5)cc4oc3=O)nc2c(C)n1` [Compound 516, 3-(6,8-dimethylimidazo[1,2-a]pyrazin-2-yl)-7-(4-methylpiperazin-1-yl)-2H-chromen-2-one]: in the assay on Smn protein, the EC1.5x (concentration giving 1.5-fold Smn protein increase) is less than 300 nM and the “maximum fold (Fold) increase” value is “***** (fold increase >1.65)”. In addition, in assay [1], the EC (1.5-fold) is less than 0.1 µM.
Consider `Cc1cn2cc(-c3cc4ccc(N5CCNC(C)(C)C5)cc4oc3=O)nc2c(C)n1` [Compound 736, 3-(6,8-dimethylimidazo[1,2-a]pyrazin-2-yl)-7-(3,3-dimethylpiperazin-1-yl)-2H-chromen-2-one], for which, in the assay on Smn protein, the EC1.5x (concentration giving 1.5-fold Smn protein increase) was less than 300 nM and the “maximum fold (Fold) increase” value is on record as “***** (fold increase >1.65)”. Also, the EC (1.5-fold) in assay [1] was less than 0.1 µM.
For the compound `O=c1oc2cc(N3CCNCC3)ccc2cc1-c1cn2cc(Cl)ccc2n1` [Compound 71, 3-(6-chloroimidazo[1,2-a]pyridin-2-yl)-7-(piperazin-1-yl)-2H-chromen-2-one], in the assay on Smn protein, the “maximum fold (Fold) increase” value is “** (fold increase between >1.2 and ≤1.35)”. Moreover, in assay [1], the EC (1.5-fold) lay in the range of 1 to 3 µM.
Consider `Cc1cn2cc(-c3cc4ccc(N5CC6(CNC6)C5)cc4oc3=O)nc2c(C)n1` [Cpd 971, 7-(2,6-diazaspiro[3.3]hept-2-yl)-3-(6,8-dimethylimidazo[1,2-a]pyrazin-2-yl)-2H-chromen-2-one], for which, in the assay on Smn protein, the EC1.5x (concentration giving 1.5-fold Smn protein increase) was less than 300 nM and the “maximum fold (Fold) increase” value is given as “***** (fold increase >1.65)”. For the same compound, in assay [1], the EC (1.5-fold) is less than 0.1 µM.
`Cc1cc2sc(-c3cc4ccc(N5CCNCC5)cc4oc3=O)cc2c(C)n1` [Compound 817, 3-(4,6-dimethylthieno[3,2-c]pyridin-2-yl)-7-(piperazin-1-yl)-2H-chromen-2-one]: the “maximum fold (Fold) increase” value in the assay on Smn protein was “** (fold increase between >1.2 and ≤1.35)”. Moreover, in assay [1], the EC (1.5-fold) was less than 0.1 µM.
For the compound `Cc1cn2cc(-c3cc4ccc(CCCNCCO)cc4oc3=O)nc2c(C)n1` [Compound 879, 3-(6,8-dimethylimidazo[1,2-a]pyrazin-2-yl)-7-{3-[(2-hydroxyethyl)amino]propyl}-2H-chromen-2-one], in the assay on Smn protein, the EC1.5x (concentration giving 1.5-fold Smn protein increase) is less than 300 nM; the “maximum fold (Fold) increase” value was “**** (fold increase between >1.5 and ≤1.65)”. The EC (1.5-fold) in assay [1] is less than 0.1 µM.
On to “7-(2,5-diazabicyclo[2.2.2]oct-2-yl)-3-(pyrazolo[1,5-a]pyridin-2-yl)-2H-chromen-2-one [Compound 191]”, for which the “maximum fold (Fold) increase” value in the assay with Smn protein is “** (fold increase between >1.2 and ≤1.35)”. Besides, in assay [1], the “EC1.5x for production of full length SMN2 mRNA” value was “*** (between >0.3 μM and ≤1 μM)”.
As for `Cc1cn2cc(-c3cc4ccc(N5CCN(C(C)C)[C@H](C)C5)cc4oc3=O)cc2c(C)n1` [Compound 813, 3-(1,3-dimethylpyrrolo[1,2-a]pyrazin-7-yl)-7-[(3R)-3-methyl-4-(propan-2-yl)piperazin-1-yl]-2H-chromen-2-one], in the assay on Smn protein, the EC1.5x (concentration giving 1.5-fold Smn protein increase) was less than 300 nM; the “maximum fold (Fold) increase” value was “**** (fold increase between >1.5 and ≤1.65)”. Further, the EC (1.5-fold) in assay [1] was less than 0.1 µM.
In the case of `Cc1nccc(-c2cc3ccc(N4CCN(C)CC4)cc3oc2=O)n1` [Compound 297, 7-(4-methylpiperazin-1-yl)-3-(2-methylpyrimidin-4-yl)-2H-chromen-2-one], the “maximum fold (Fold) increase” value in the assay with Smn protein is given as “* (maximum fold increase of ≤1.2)”. For the same compound, in assay [1], the EC (1.5-fold) was 3 to 30 µM.
With `Cc1cn2cc(-c3cc4ccc(N5CCN[C@@H](C)C5)cc4oc3=O)ccc2n1` [Compound 664, 3-(2-methylimidazo[1,2-a]pyridin-6-yl)-7-[(3S)-3-methylpiperazin-1-yl]-2H-chromen-2-one], in the assay on Smn protein, the EC1.5x (concentration giving 1.5-fold Smn protein increase) is less than 300 nM and the “maximum fold (Fold) increase” value is reported as “***** (fold increase >1.65)”. Moreover, the EC (1.5-fold) in assay [1] is less than 0.1 µM.
Consider `Cc1ccn2cc(-c3cc4ccc(N5CCN(C)CC5)cc4oc3=O)nc2n1` [Compound 224, 3-(7-methylimidazo[1,2-a]pyrimidin-2-yl)-7-(4-methylpiperazin-1-yl)-2H-chromen-2-one], for which the “maximum fold (Fold) increase” value with Smn protein is recorded as “* (maximum fold increase of ≤1.2)”. In assay [1], the EC (1.5-fold) lay in the range of 0.3 to 1 µM.
Take `CN1CCCN(c2ccc3cc(-c4cn5ccncc5n4)c(=O)oc3c2)CC1` [Compound 455, 3-(imidazo[1,2-a]pyrazin-2-yl)-7-(4-methyl-1,4-diazepan-1-yl)-2H-chromen-2-one]: in the assay on Smn protein, the EC1.5x (concentration giving 1.5-fold Smn protein increase) lay in the range of 300 to 1000 nM; the “maximum fold (Fold) increase” value was “**** (fold increase between >1.5 and ≤1.65)”. The EC (1.5-fold) in assay [1] is less than 0.1 µM.
Regarding `Cc1cn2cc(-c3cc4ccc(N5CC[C@@H](CN)C5)cc4oc3=O)nc2c(C)n1` [Compound 964, 7-[(3S)-3-(aminomethyl)pyrrolidin-1-yl]-3-(6,8-dimethylimidazo[1,2-a]pyrazin-2-yl)-2H-chromen-2-one], in the assay on Smn protein, the “maximum fold (Fold) increase” value is “** (fold increase between >1.2 and ≤1.35)”. For the same compound, the EC (1.5-fold) in assay [1] is 0.1 to 0.3 µM.
As for `O=c1oc2cc(OC[C@@H]3CCCN3)ccc2cc1-c1nc2ccccc2s1` [Compound 56, 3-(1,3-benzothiazol-2-yl)-7-[(2S)-pyrrolidin-2-ylmethoxy]-2H-chromen-2-one], the “maximum fold (Fold) increase” value with Smn protein is given as “* (maximum fold increase of ≤1.2)”. Further, the EC (1.5-fold) in assay [1] is 3 to 30 µM.
The like results for `CC(C)(C)OC(=O)N[C@H]1CCN(c2ccc3cc(-c4cn5cc(Cl)ccc5n4)c(=O)oc3c2)C1` [Compound 106, tert-butyl {(3S)-1-[3-(6-chloroimidazo[1,2-a]pyridin-2-yl)-2-oxo-2H-chromen-7-yl]pyrrolidin-3-yl}carbamate] were, in that order, “* (maximum fold increase of ≤1.2)” and 3 to 30 µM.
With `Cc1cn2cc(-c3cc4ccc(N5CCC(N)CC5)cc4oc3=O)cc2c(C)n1` [Compound 714, 7-(4-aminopiperidin-1-yl)-3-(1,3-dimethylpyrrolo[1,2-a]pyrazin-7-yl)-2H-chromen-2-one], the “maximum fold (Fold) increase” value with Smn protein is “* (maximum fold increase of ≤1.2)”. In addition, the EC (1.5-fold) in assay [1] is 0.1 to 0.3 µM.
With `CCN1CCN(c2ccc3cc(-c4cn5cc(C)nc(C)c5n4)c(=O)oc3c2)CC1C` (centres unmarked) [Compound 852, 3-(6,8-dimethylimidazo[1,2-a]pyrazin-2-yl)-7-(4-ethyl-3-methylpiperazin-1-yl)-2H-chromen-2-one], in the assay on Smn protein, the EC1.5x (concentration giving 1.5-fold Smn protein increase) was less than 300 nM; the “maximum fold (Fold) increase” value is “**** (fold increase between >1.5 and ≤1.65)”. For the same compound, the EC (1.5-fold) in assay [1] was less than 0.1 µM.
Consider `Cc1cn2cc(-c3cc4ccc(N5C[C@@H]6C[C@H]5CN6)cc4oc3=O)nc2c(C)n1` [Compound 648, 7-[(1S,4S)-2,5-diazabicyclo[2.2.1]hept-2-yl]-3-(6,8-dimethylimidazo[1,2-a]pyrazin-2-yl)-2H-chromen-2-one], for which, in the assay with Smn protein, the EC1.5x (concentration giving 1.5-fold Smn protein increase) was less than 300 nM and the “maximum fold (Fold) increase” value is “***** (fold increase >1.65)”. The EC (1.5-fold) in assay [1] is less than 0.1 µM.
